Reference: patent US20260108614A1, “IMMOBILIZED ENDOGLYCOSIDASE FUSION PROTEIN AND USE THEREOF” (GENEQUANTUM HEALTHCARE (SUZHOU) CO., LTD., priority 2022, published 2026)
Where two headings read alike, the source gives them in different places. Square brackets hold non-standard residues; d marks the D form. Peptide text beside a SMILES is read from it. * marks the point of attachment. Dolaproine = CO[C@@H]([C@@H]1CCCN1)[C@@H](C)C(=O)O; Dil = CC[C@H](C)[C@H](NC)[C@@H](CC(=O)O)OC; X1 = C[C@@H](N*)[C@@H](O)c1ccccc1; NMeV = CN[C@H](C(=O)O)C(C)C

Legend:
[1] = tested on: ErbB2/Her2-positive cells; experiment: Tumor cell proliferation inhibition, ErbB2/Her2-positive cells as a group; assay type: cell-based, human; details: Example 9; BT-474 and NCI-N87
TROP2-positive cells = experiment: Tumor cell proliferation inhibition, TROP2-positive cells as a group; assay type: cell-based, human; details: Example 19; BxPC-3 and FaDu
Experimental: (§1) 1) ErbB2/Her2-positive human breast cancer cells BT-474, ErbB2/Her2-positive human gastric cancer cells NCI-N87 and ErbB2/Her2-negative human liver cancer cells HepG2 were inoculated into a 96-well cell plate at 100 μl/well (1000 to 10000 cells), and incubated overnight in a cell incubator under the conditions of 37° C., 5% CO2, and 100% humidity.
(§2) Incubation was further performed at 37° C. for 72 to 120 h.
(§3) 3) The cell plate was removed from the 37° C. cell incubator, and equilibrated for about 30 min to room temperature. 100 μl of CellTiter Glo reagent was added into each well, a shaker shook for 2 min, followed by standing in a dark place at room temperature for 10 min, and a relative light unit (RLU) was measured with an MD M4 microplate reader.
(§4) BxPC-3, FaDu, HepG2 and other human tumor cells were selected.
(§5) TROP2-positive human tumor cells such as BxPC-3 (human pancreatic cancer cell) and FaDu (human throat cancer cell), and TROP2-negative tumor cells such as HepG2 (human liver cancer cell) were selected.

[2] = tested on: FaDu (human throat cancer cell); experiment: Tumor cell proliferation inhibition, FaDu; assay type: cell-based; details: Table 7; TROP2-positive; "—" = undetected; read-out: Inhibitory effect on proliferation of Tumor Cells (IC50, nM), FaDu
Experimental: as §1, §2, §3, §4, §5

[3] = tested on: BxPC-3 (human pancreatic cancer cell); experiment: Tumor cell proliferation inhibition, BxPC-3; assay type: cell-based; details: Table 7; TROP2-positive; "—" = undetected; read-out: Inhibitory effect on proliferation of Tumor Cells (IC50, nM), BxPC-3
Experimental: as §1, §2, §3, §4, §5

[4] = tested on: ErbB2/Her2-positive human gastric cancer cells NCI-N87; experiment: Tumor cell proliferation inhibition (CellTiter Glo), NCI-N87; assay type: cell-based; details: Table 3; incubation 72 to 120 h; "—" = undetected; read-out: Inhibitory effect on proliferation of Tumor Cells (IC50, nM), NCI-N87
Experimental: as §1, §2, §3

[5] = tested on: ErbB2/Her2-positive human breast cancer cells BT-474; experiment: Tumor cell proliferation inhibition (CellTiter Glo), BT-474; assay type: cell-based; details: Table 3; incubation 72 to 120 h; "—" = undetected; read-out: Inhibitory effect on proliferation of Tumor Cells (IC50, nM), BT-474
Experimental: as §1, §2, §3

[6] = tested on: human liver cancer cells HepG2; experiment: Tumor cell proliferation inhibition (CellTiter Glo), HepG2; assay type: cell-based; details: "—" = undetected, read-out: Inhibitory effect on proliferation of Tumor Cells (IC50, nM), HepG2
Experimental: as §1, §2, §3, §4, §5

Compound: CC[C@H](C)[C@@H]([C@@H](CC(=O)N1CCC[C@H]1[C@H](OC)[C@@H](C)C(=O)N[C@H](C)[C@@H](O)c1ccccc1)OC)N(C)C(=O)[C@@H](NC(=O)[C@@H](NC)C(C)C)C(C)C [MMAE, monomethylauristatin E, reference compound] (H-[NMeV]V[Dil][Dolaproine]-X1)
- inhibitory effect on proliferation of the ErbB2/Her2-positive cells (in words) [1]: obvious inhibitory effect
- inhibitory effect on proliferation of the TROP2-positive cells (in words) (TROP2-positive cells): obvious inhibitory effect
- IC50 [2]: 0.167 nM
- IC50 [3]: 0.388 nM
- IC50 [4]: 0.248 nM
- IC50 [5]: 0.272 nM
- IC50 ([6]; Table 3, ErbB2/Her2-negative cells, incubation 72 to 120 h): 0.567 nM
- IC50 ([6]; Table 7, TROP2-negative): 0.398 nM
